# Test results: US7264314B2, “Adrenocorticotropic hormone analogs and related methods” (priority 2004, dated 2007)
# No end group written: not given here.
# System: serum corticosterone in dexamethasone-suppressed mice
# Experiment: in vivo Serum Corticosteroid Induction Assay
# Parameters: species or system FVB/N mice
# Settings: compared to unmodified mACTH(1–24); 1 μg s.c.; blood one hour after administration
# Protocol: An in vivo Serum Corticosteroid Induction Assay measures the level of corticosteroid or corticosterone in the blood stream of a subject. More specifically, the in vivo Serum Corticosteroid Induction Assay can include the following steps: first, an agent to suppress endogenous ACTH production was administered to a mouse subject, such as an intraperitoneal injection of dexamethasone; second, after waiting a suitable period of time for suppression of endogenous ACTH production (e.g., 1.5–2.0 hours), a test compound can be administered to the mouse by a suitable method, such as intraperitoneal or subcutaneous injection; and third, after waiting a suitable period of time (e.g., 1 hour) for action of the injected test compound, a blood sample can be taken from the subject and the level of serum corticosterone can be determined by a suitable method, such as a competitive radioimmunoassay using ^125I RIA kit (ICN, Costa Mesa, Calif.). Example 1 describes a murine in vivo Serum Corticosteroid Induction Assay in detail.
# The corticosteroid or corticosterone secretion induced in vivo by an ACTH analog compound was compared to the level of corticosteroid secretion produced by an unmodified ACTH compound by measuring blood serum corticosteroid after administering either the ACTH or ACTH analog as test compounds. […] ACTH analog compositions with decreased function were identified by measuring corticosterone levels using standard radioimmunoassay (RIA) analysis on blood samples collected one hour after administering the mACTH(1–24) or ACTH analog compound to dexamethasone-suppressed mice. In FIG. 1, the potency of various ACTH analog peptides is expressed as per cent induction of corticosterone, with mouse ACTH being 100%. […] The percent of corticosterone induction 12 of ACTH analog Compounds in Samples 2–10 are shown as a percentage of the concentration of serum corticosterone 20 measured for unmodified mACTH(1–24) in the in vivo Serum Corticosteroid Adrenal Induction Assay. The structural modifications and measured percentage reduction in serum measured for Samples 2–10 in FIG. 1 are shown in Table 3 below.
# The in vivo Serum Corticosteroid Induction Assay was performed according the following method. First, two to three month-old male FVB/N mice from our colony, five per group, were injected intraperitoneally with dexamethasone (0.4 mg/0.1 ml PBS per mouse; Sigma, St. Louis, Mo.) to suppress their endogenous ACTH production. See Hajos, G T et al., “Studies of the potency of polypeptides with ACTH action by a new method based on continuous measurement of plasma corticosterone,” Steroids Lipids Res 3:225–228 (1972), Costa, J L, et al., “Mutational analysis of evolutionarily conserved ACTH residues,” Gen Comp Endocrinol, 136:12–16 (2004), and Karpac, J, et al., “Development, Maintenance, and Function of the Adrenal Gland in Early Postnatal Pro-opiomelanocortin Null Mutant Mice,” Endocrinology (2005), published online ahead of print Feb. 24, 2005, all of which are incorporated herein by reference.
# Second, ninety to one hundred twenty minutes later, the dexamethasone-suppressed mice were injected subcutaneously between the shoulder blades with either unmodified mACTH(1–24) or one of several ACTH analog peptide compounds (1 μg/0.1 mL PBS/0.5% BSA), or with vehicle alone (control) (0.1 mL PBS/0.5% BSA). The following ACTH analog peptide compounds were administered to separate mice: 1: murine ACTH1–24; 2: V26F,E30K; 3: P19W,K21E,Y23R; 4: E30K,P36R; 5: ALA19–24; 6: V26F,P36R; 7: P19W, K21E; 8: P19W,K21A,delY23; 9: P19W,K21A; 10: KRRP16-19RMW (AT814) (SEQ ID NO:20).
# Third, one hour later, blood was collected within less than 1 minute from a small incision in the tail, and serum was flash-frozen and stored at −80° C. until assayed. Serum corticosterone was determined by competitive radioimmunoassay (^125I RIA kit; ICN, Costa Mesa, Calif.) according to the manufacturer's recommendations. One microliter of serum was used per assay sample. […]
substance,measurement,value
N-Ser^1-Tyr-Ser-Met-Glu^5-His-Phe-Arg-Trp-Gly^10-Lys-Pro-Val-Gly-Lys^15-Arg-Ala-Ala-Trp-Val^20-Lys-Val-Tyr-Pro-Ac (SYSMEHFRWGKPVGKRAAWVKVYP; not fully specified (C-terminus); printed as N-Ser1-Tyr-Ser-Met-Glu5-His-Phe-Arg-Trp-Gly10-Lys-Pro-Val-Gly-Lys15-Arg-Ala-Ala-Trp-Val20-Lys-Val-Tyr-Pro-Ac) [AT814],Percent reduction in serum corticosteroid,100%
